What is called Ki is a measure of affinity in units of concentration, obtained from inhibition or displacement.

For this test, the target named is T1, human NK2 receptor (Homo sapiens, UniProt P21452).
T1 construct: purchased Perkin Elmer biosignal Inc. 6110510
T1 sequence (P21452 1-398): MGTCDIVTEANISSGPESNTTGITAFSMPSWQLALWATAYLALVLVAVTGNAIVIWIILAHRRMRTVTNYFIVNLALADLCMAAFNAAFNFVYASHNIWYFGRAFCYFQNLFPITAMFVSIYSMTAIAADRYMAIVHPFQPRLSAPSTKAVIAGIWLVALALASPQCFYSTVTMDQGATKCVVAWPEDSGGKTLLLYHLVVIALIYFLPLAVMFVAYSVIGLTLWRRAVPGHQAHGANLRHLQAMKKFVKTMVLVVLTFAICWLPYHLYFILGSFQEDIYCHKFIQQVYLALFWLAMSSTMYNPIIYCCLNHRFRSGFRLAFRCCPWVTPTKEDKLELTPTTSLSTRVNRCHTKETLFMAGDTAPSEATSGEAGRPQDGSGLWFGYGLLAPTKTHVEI
Nature of the test: [3H]SR48968 competition binding assay. Conditions: [3H]SR48968 displacement, membranes of CHO cells stably expressing recombinant human NK2 receptor; Ki from IC50 by Cheng-Prussoff. How it is done:
[^3H]SR48968 Competition Binding Assay
hNK2 receptor binding experiment were performed using [^3H]SR48968 (Catalog No. TRK398, specific activity: 27.0 Ci/mmol, Amersham, GE Healthcare UK limited, Buckinghamshire, UK) and membrane isolated from CHO cells stably expressing recombinant human NK2 receptor (product No. 6110510, Perkin Elmer biosignal Inc., Shelton, Conn., USA). After thawing, the membrane homogenates were centrifuged at 48,000×g for 10 min at 4° C., the pellets were resuspended in the 50 mM Tris-HCl, 3 mM MnCl2, 4 μg/mL Chymostatin, 0.04% BSA binding buffer at pH 7.4 to a final assay concentration of 6.5 μg protein/well. For inhibition experiments, membranes were incubated with [^3H]SR48968 at a concentration equal to KD value of radioligand and 10 concentrations of the inhibitory compound (0.0003-10 μM) (in a total reaction volume of 500 μl) for 75 min at room temperature (RT). At the end of the incubation, membranes were filtered onto unitfilter (96-well white microplate with bonded GF/C filter preincubated 1 h in 0.3% polyethylenimine, Packard BioScience, Meriden, Conn.) with a Filtermate 196 harvester (Packard BioScience) and washed 4 times with ice-cold 50 mM Tris-HCl, pH 7.4 buffer. Nonspecific binding was measured in the presence of 10 μM 1-{2-[(R)-3-(3,4-dichloro-phenyl)-1-(3,4,5-trimethoxy-benzoyl)-pyrrolidin-3-yl]-ethyl}-4-phenyl-piperidine-4-carboxylic acid amide. The radioactivity on the filter was counted (5 min) on a Packard Top-count microplate scintillation counter with quenching correction after addition of 45 μl of microscint 40 (Canberra Packard S. A., Zürich, Switzerland) and shaking for 1 h. Inhibition curves were fitted according to the Hill equation: y=100/(1+(x/IC50)^nH), where nH=slope factor using Excel-fit 4 software (Microsoft). IC50 values were derived from the inhibition curve and the affinity constant (Ki) values were calculated using the Cheng-Prussoff equation Ki=IC50/(1+[L]/KD) where [L] was the concentration of radioligand and KD was its dissociation constant at the receptor, derived from the saturation isotherm.
`COc1ccc(C(=O)N(C)[C@H]2CN(C(=O)C3CCN(CC(C)(C)C)CC3)C[C@@H]2c2ccc(Cl)cc2)cc1C(F)(F)F` (racemic) [Example 120, N-{(3RS,4SR)-4-(4-Chloro-phenyl)-1-[1-(2,2-dimethyl-propyl)-piperidine-4-carbonyl]-pyrrolidin-3-yl}-4-methoxy-N-methyl-3-trifluoromethyl-benzamide]: the Ki was determined as 0.8 nM. With `CN(C(=O)c1ccc(Cl)c(C(F)(F)F)c1)[C@H]1CN(C(=O)C2CCN(CC#N)CC2)C[C@@H]1c1ccc(Cl)cc1` (racemic) [Example 163, 4-Chloro-N-[(3RS,4SR)-4-(4-chloro-phenyl)-1-(1-cyanomethyl-piperidine-4-carbonyl)-pyrrolidin-3-yl]-N-methyl-3-trifluoromethyl-benzamide], the Ki stood at 3.7 nM. As for `COc1ccc(C(=O)N(C)[C@H]2CN(C(=O)C3CCN(CCC(F)(F)F)CC3)C[C@@H]2c2ccc(Cl)c(Cl)c2)cc1C(F)(F)F` (racemic) [Example 139, N-{(3RS,4SR)-4-(3,4-Dichloro-phenyl)-1-[1-(3,3,3-trifluoro-propyl)-piperidine-4-carbonyl]-pyrrolidin-3-yl}-4-methoxy-N-methyl-3-trifluoromethyl-benzamide], the Ki turned out to be 0.6 nM. As for `COc1ccc(C(=O)N(C)[C@H]2CN(C(=O)c3ccc(F)cc3)C[C@@H]2c2ccc(Cl)cc2)cc1C(F)(F)F` (racemic) [Example 88, N-[(3RS,4SR)-4-(4-Chloro-phenyl)-1-(4-fluoro-benzoyl)-pyrrolidin-3-yl]-4-methoxy-N-methyl-3-trifluoromethyl-benzamide], the Ki stood at 17.8 nM. In the case of `CN(C(=O)c1ccc(Cl)c(C(F)(F)F)c1)[C@H]1CN(C(=O)C2CCN(C(=O)C3(C)CC3)CC2)C[C@@H]1c1ccc(Cl)c(Cl)c1` (racemic) [Example 97, 4-Chloro-N-{(3RS,4SR)-4-(3,4-dichloro-phenyl)-1-[1-(1-methyl-cyclopropanecarbonyl)-piperidine-4-carbonyl]-pyrrolidin-3-yl}-N-methyl-3-trifluoromethyl-benzamide], the Ki was 0.7 nM. Then `CC(C(=O)N(C)[C@H]1CN(C(=O)C2CCN(CC3CC3)CC2)C[C@@H]1c1ccc(Cl)c(Cl)c1)c1ccc(F)cc1` (mixture of isomers) [Example 159, N-[(3RS,4SR)-1-(1-Cyclopropylmethyl-piperidine-4-carbonyl)-4-(3,4-dichloro-phenyl)-pyrrolidin-3-yl]-2-(4-fluoro-phenyl)-N-methyl-propionamide], with 43.3 nM. Then `CN(C(=O)CC1CCCC1)[C@H]1CN(C(=O)C2CCN(CC3CC3)CC2)C[C@@H]1c1ccc(Cl)c(Cl)c1` (racemic) [Example 151, 2-Cyclopentyl-N-[(3RS,4SR)-1-(1-cyclopropylmethyl-piperidine-4-carbonyl)-4-(3,4-dichloro-phenyl)-pyrrolidin-3-yl]-N-methyl-acetamide], with 6.7 nM. Take `COc1ccc(C(=O)N(C)[C@@H]2CN(C(=O)N3CCN(S(C)(=O)=O)CC3)C[C@H]2c2ccc(Cl)c(Cl)c2)cc1C(F)(F)F` (racemic) [Example 8, rac-N-[(3S,4R)-4-(3,4-Dichloro-phenyl)-1-(4-methanesulfonyl-piperazine-1-carbonyl)-pyrrolidin-3-yl]-4-methoxy-N-methyl-3-trifluoromethyl-benzamide]: the Ki turned out to be 2.33 nM. The figure for `CN(C(=O)c1ccc2c(c1)OC(F)(F)O2)[C@@H]1CN(C(=O)N2CCN(S(C)(=O)=O)CC2)C[C@H]1c1ccc(Cl)c(Cl)c1` (racemic) [Example 28, rac-2,2-Difluoro-benzo[1,3]dioxole-5-carboxylic acid [(3S,4R)-4-(3,4-dichloro-phenyl)-1-(4-methanesulfonyl-piperazine-1-carbonyl)-pyrrolidin-3-yl]-methyl-amide] is 2.04 nM; for `CN(C(=O)c1ccc(Cl)c(C(F)(F)F)c1)[C@@H]1CN(C(=O)C2CCN(CC3CC3)CC2)C[C@H]1c1ccc(Cl)c(Cl)c1` [Example 167, 4-Chloro-N-[(3S,4R)-1-(1-cyclopropylmethyl-piperidine-4-carbonyl)-4-(3,4-dichloro-phenyl)-pyrrolidin-3-yl]-N-methyl-3-trifluoromethyl-benzamide] it is 93.6 nM. Then `CN(C(=O)c1ccccc1)[C@@H]1CN(C(=O)N2CCN(S(C)(=O)=O)CC2)C[C@H]1c1ccc(Cl)c(Cl)c1` (racemic) [Example 9, rac-N-[(3S,4R)-4-(3,4-Dichloro-phenyl)-1-(4-methanesulfonyl-piperazine-1-carbonyl)-pyrrolidin-3-yl]-N-methyl-benzamide], with 86.9 nM; and `COc1ccc(C(=O)N(C)[C@@H]2CN(C(=O)c3ccc(C(C)=O)cc3)C[C@H]2c2ccc(Cl)c(Cl)c2)cc1C(F)(F)F` (racemic) [Example 57, rac-N-[(3S,4R)-1-(4-Acetyl-benzoyl)-4-(3,4-dichloro-phenyl)-pyrrolidin-3-yl]-4-methoxy-N-methyl-3-trifluoromethyl-benzamide], with 1.55 nM. Then `CN(C(=O)Cc1ccc(F)cc1)[C@@H]1CN(C(=O)C2CCN(C(=O)C3(C)CC3)CC2)C[C@H]1c1ccc(Cl)c(Cl)c1` [Example 119, N-{(3S,4R)-4-(3,4-Dichloro-phenyl)-1-[1-(1-methyl-cyclopropanecarbonyl)-piperidine-4-carbonyl]-pyrrolidin-3-yl}-2-(4-fluoro-phenyl)-N-methyl-acetamide], with 11.3 nM. Consider `CN(C(=O)c1ccc(Cl)cn1)[C@H]1CN(C(=O)C2CCN(C(=O)C3(C)CC3)CC2)C[C@@H]1c1ccc(Cl)c(Cl)c1` (racemic) [Example 108, 5-Chloro-pyridine-2-carboxylic acid {(3RS,4SR)-4-(3,4-dichloro-phenyl)-1-[1-(1-methyl-cyclopropanecarbonyl)-piperidine-4-carbonyl]-pyrrolidin-3-yl}-methyl-amide], for which the Ki came out at 2.6 nM. For `CN(C(=O)c1cc(F)cc(C(F)(F)F)c1)[C@@H]1CN(C(=O)N2CCN(S(C)(=O)=O)CC2)C[C@H]1c1ccc(Cl)c(Cl)c1` (racemic) [Example 18, rac-N-[(3S,4R)-4-(3,4-Dichloro-phenyl)-1-(4-methanesulfonyl-piperazine-1-carbonyl)-pyrrolidin-3-yl]-3-fluoro-N-methyl-5-trifluoromethyl-benzamide], the Ki was found to be 20.7 nM.

As for `CCN1CCC(C(=O)N2C[C@H](c3ccc(Cl)cc3)[C@@H](N(C)C(=O)c3ccc(OC)c(C(F)(F)F)c3)C2)CC1` (racemic) [Example 121, N-[(3RS,4SR)-4-(4-Chloro-phenyl)-1-(1-ethyl-piperidine-4-carbonyl)-pyrrolidin-3-yl]-4-methoxy-N-methyl-3-trifluoromethyl-benzamide], the Ki worked out at 5.1 nM. Then `COc1ccc(C(=O)N(C)[C@@H]2CN(C(=O)c3ccc(N(C)C)cc3)C[C@H]2c2ccc(Cl)c(Cl)c2)cc1C(F)(F)F` (racemic) [Example 45, rac-N-[(3S,4R)-4-(3,4-Dichloro-phenyl)-1-(4-dimethylamino-benzoyl)-pyrrolidin-3-yl]-4-methoxy-N-methyl-3-trifluoromethyl-benzamide], with 2.98 nM; and `CN(C(=O)c1ccc2nccnc2c1)[C@@H]1CN(C(=O)N2CCN(S(C)(=O)=O)CC2)C[C@H]1c1ccc(Cl)c(Cl)c1` (racemic) [Example 34, rac-Quinoxaline-6-carboxylic acid [(3S,4R)-4-(3,4-dichloro-phenyl)-1-(4-methanesulfonyl-piperazine-1-carbonyl)-pyrrolidin-3-yl]-methyl-amide], with 76.7 nM; and `CN(C(=O)c1ccc(Cl)c(C(F)(F)F)c1)[C@@H]1CN(C(=O)C2CCN(CC3CC3)CC2)C[C@H]1c1ccc(Cl)cc1` [Example 154, 4-Chloro-N-[(3S,4R)-4-(4-chloro-phenyl)-1-(1-cyclopropylmethyl-piperidine-4-carbonyl)-pyrrolidin-3-yl]-N-methyl-3-trifluoromethyl-benzamide], with 0.5 nM.

For the origin of these results see patent publication US8404679B2, “Pyrrolidine derivatives as NK2 receptor antagonists” (Hoffmann-La Roche Inc., priority 2008, dated 2013).
